Assay results taken from patent US3980779A, “3-Amino-1,2,4-benzotriazine-1,4-di-N-oxide compositions and method of using same” (Bayer Aktiengesellschaft, priority 1972, dated 1976).
≈ marks a conversion by molar mass, not a printed value. Like-named read-outs stand apart in the source and are kept apart here.

Legend:
[1] = system: Staphylococcus aureus 133; experiment: MIC plate test; format: cell-based; conditions: nutrient medium, 37°C, 24 hours
Description: (§1) The antimicrobial activity of these compounds can be conveniently observe in in vitro and in vivo models. For example, their minimum inhibitory concentration (MIC) can be determined in the plate test on a complete nutrient base of the following composition: 10 g of proteose-peptone, 10 g of veal infusion, 2 g of dextrose, 3 g of sodium chloride, 2 g of disodium phosphate, 1 g of sodium acetate, 0.01 g of adenine sulfate, 0.01 g of guanine hydrochloride, 0.01 g of uracil, 0.01 g of xantine, 12 g of agar-agar and 1 liter of water. With an incubation temperature of 37°C and an incubation time of 24 hours, the following typical values can be observed: […]

[2] = system: Klebsiella 63; experiment: MIC plate test; format: cell-based; conditions: nutrient medium, 37°C, 24 hours
Description: as §1

[3] = system: Proteus vulgaris 1017; experiment: MIC plate test; format: cell-based; conditions: nutrient medium, 37°C, 24 hours
Description: as §1

[4] = system: Streptococcus pyogenes W; experiment: MIC plate test; format: cell-based; conditions: nutrient medium, 37°C, 24 hours
Description: as §1

[5] = system: Pseudomonas aeruginosa BONN; experiment: MIC plate test; format: cell-based; conditions: nutrient medium, 37°C, 24 hours
Description: as §1

[6] = system: Klebsiella 8085; experiment: MIC plate test; format: cell-based; conditions: nutrient medium, 37°C, 24 hours
Description: as §1

[7] = system: Pseudomonas aeruginosa W; experiment: MIC plate test; format: cell-based; conditions: nutrient medium, 37°C, 24 hours
Description: as §1

[8] = system: E.coli C 165; experiment: in vivo infection of white mice, subcutaneous administration; conditions: 15 minutes before intraperitoneal infection, 24 hours later
Description: (§2) The above in vitro data are confirmed in in vivo infections.

[9] = system: E. coli A 261; experiment: MIC plate test; format: cell-based, Escherichia coli; conditions: 37°C, 24 hours
Description: as §1

[10] = system: E. coli C 165; experiment: MIC plate test; format: cell-based, Escherichia coli; conditions: 37°C, 24 hours
Description: as §1

[11] = system: Staphylococcus aureus 133; experiment: in vivo infection of white mice, subcutaneous administration; conditions: 15 minutes before intraperitoneal infection, 24 hours later
Description: as §2

[12] = growth promoting activity and fodder utilisation in chicken; format: in vivo; conditions: 10 PPM in fodder
Protocol: The growth promoting activity of the new compounds and their effectiveness in improving the fodder utilisation may be illustrated by the following data:
Test animals : chicken (kept in cages, with complete fodder and water ad libitum)
The active ingredient is mixed in a finely divided form to the fodder according to customary methods. The tests were performed with 12 animals in each tested group.
Active ingredient: compound of Example 4
Concentration of the active ingredient in the fodder: […]

## Nc1n[n+]([O-])c2ccccc2[n+]1[O-] [Compound A, 3-amino-1,2,4-benzotriazine-1,4-di-N-oxide]
[1]; read-out: MIC
  MIC: 16 µg/mL (≈ 89.8 µM)
[2]; read-out: MIC
  MIC: 4 µg/mL (≈ 22.5 µM)
[3]; read-out: MIC
  MIC: 2 µg/mL (≈ 11.2 µM)
[4]; read-out: MIC
  MIC: 32 µg/mL (≈ 180 µM)
[5]; read-out: MIC
  MIC: 8 µg/mL (≈ 44.9 µM)
[6]; read-out: MIC
  MIC: 2 µg/mL (≈ 11.2 µM)
[7]; read-out: MIC
  MIC: 64 µg/mL (≈ 359 µM)
[8]; Escherichia coli, C165, sc, read-out: ED50
  ED50: 20 mg/kg
[9]; Escherichia coli, A261, nutrient medium, read-out: MIC
  MIC: 4 µg/mL (≈ 22.5 µM)
[10]; Escherichia coli, C165, nutrient medium, read-out: MIC
  MIC: 4 µg/mL (≈ 22.5 µM)

## isomeric mixture of 6-chloro- and 7-chloro-3-amino-1,2,4-benzotriazine-1,4-di-N-oxide [Compound B]
[1]
  MIC: 8 µg/mL
[2]
  MIC: 8 µg/mL
[3]
  MIC: 4 µg/mL
[4]
  MIC: 8 µg/mL
[5]
  MIC: 128 µg/mL
[6]
  MIC: 1 µg/mL
[7]
  MIC: 128 µg/mL
[11]
  ED50: 250 mg/kg
[9]; nutrient medium
  MIC: 8 µg/mL
[10]; nutrient medium
  MIC: 8 µg/mL

## isomeric mixture of 6-methoxy and 7-methoxy-3-amino-1,2,4-benzotriazine-1,4-di-N-oxide [Compound C]
[12]; week 0
  Consumption of fodder in relation to the control group: 100%
  Weight increase in relation to the control group: 100%
  weight increase (all animals): 75 gram
[12]; week 1
  Consumption of fodder in relation to the control group: 85.7%
  Weight increase in relation to the control group: 102.8%
  weight increase (all animals): 148.4 gram
[12]; week 2
  Consumption of fodder in relation to the control group: 90.4%
  Weight increase in relation to the control group: 109.0%
  weight increase (all animals): 276.7 gram
[12]; week 3
  Consumption of fodder in relation to the control group: 93.4%
  Weight increase in relation to the control group: 105.8%
  weight increase (all animals): 475.0 gram
[12]; week 4
  Consumption of fodder in relation to the control group: 98.5%
  Weight increase in relation to the control group: 110.4%
  weight increase (all animals): 761.8 gram
[12]; week 5
  Consumption of fodder in relation to the control group: 101.1%
  Weight increase in relation to the control group: 106.4%
  weight increase (all animals): 1019.1 gram
[12]; week 6
  Consumption of fodder in relation to the control group: 92.2%
  Weight increase in relation to the control group: 106.0%
  weight increase (all animals): 1296.4 gram
[1]
  MIC: 4 µg/mL
[2]
  MIC: 2 µg/mL
[3]
  MIC: 1 µg/mL
[4]
  MIC: 4 µg/mL
[5]
  MIC: 32 µg/mL
[6]
  MIC: 1 µg/mL
[7]
  MIC: 64 µg/mL
[11]
  ED50: 40 mg/kg
[8]
  ED50: 25 mg/kg
[9]; nutrient medium
  MIC: 2 µg/mL
[10]; nutrient medium
  MIC: 2 µg/mL
